Data taken from EP0350948B1, “Porphyrin derivatives” (TOYOHAKKA KOGYO KABUSHIKI KAISHA, priority 1988, dated 1990).

How the values were obtained:
[1] = tested on: nitrosoamine-induced pancreatic cancer; experiment: in vivo hemorrhagic necrosis effect; design: species or system hamsters; key to Hemorrhagic necrosis effect: four scales of G4, G3, G2 and G1; four scales of G4, G3, G2 and G1; four scales of G4, G3, G2 and G1; four scales of G4, G3, G2 and G1; details: for photograph of a cancer mass (Fig. 2): n = even numbers; for Hemorrhagic necrosis effect: intensity of hemorrhagic necrosis at 24 hours following i.v. administration, and pathological study
Method: Cancer bearing hamsters of Experiment 1 were i.v. administered the test substance C6-Ga-DP-diAsp (10) (10 mg/ml) which had been diluted with phosphate buffer at 25 mg/kg bodyweight and 12.5 mg/kg bodyweight respectively. The animals were exsanguinated and autopsied at 24 hours after administration, and observed.
The evaluation was based on the four scales of G4, G3, G2 and G1.

[2] = tested on: Leukemia cells of a mouse (P388); experiment: in vitro photosensitivity test (cell growth inhibition ratio); format: cell-based; details: irradiated at 10,000 lux for 1 hour, incubated for 48 hours, versus group shielded from light
Method: Leukemia cells of a mouse (P388) were placed in wells (a plate with 24 wells) at 5 x 10^4/well, and incubated for 2 hours. The test materials C8-Ga-DP-diAsp (12), C10-Mn-DP-diAsp (37) and photofrin II each at concentrations of 1.56, 3.13, 6.25, 12.5, 25, and 50 ng/ml (common ratio : 2) were prepared. The specified amounts of these test solutions were added to the above culture, irradiated at 10,000 lux for 1 hour, incubated for 48 hours, and the cells per one well were counted. A group shielded from light using an aluminium foil during irradiation was provided as control. The index of photosensitivity was obtained by dividing the cell counts of the respective groups with the cell count of an untreated group provided separately (cell growth inhibition ratio (%)).
However, this was attributed to the toxicity of the test material per se rather than to irradiation.

[3] = tested on: nitrosoamine-induced pancreatic cancer; experiment: laser irradiation to the extirpated organ (excited fluorescent spectrum, N2-PLS measurement), tumor to tissue ratio; format: in vivo, Golden hamsters; details: i.v. 25 mg/kg bodyweight, organs extirpated at 24 hours after administration
Method: Golden hamsters (males, 5 per group, bodyweight approximately 150 g) were implanted subcutaneously tumor cells of the nitrosoamine-induced pancreatic cancer. After 14 to 21 days following implantation, animals were intravenously (i.v.) administered the test substance EG-Ga-DP-diGly (10 mg/ml) which had been diluted with phosphate buffer at 25 mg/kg bodyweight. At 24 hours after administration, the organs including the tumor were extirpated, irradiated with N2-pulsed laser (N2, 337 nm, 2 ns, 400 - 1000 nm), and measured of excited fluorescent spectrum. The wavelengths of 600 - 900 nm were studied using the peak wavelength of NADH at 470 nm as a reference. (N2-PLS measurement). […] (Tumor to tissue ratio).
Excited fluorescent spectra of the organs extirpated at 24 hours after administration were measured, and the peak wavelength at 600 - 900 nm was calculated by setting the peak wavelength at 470 nm as the reference 1. As fluorescence in Mn, Fe and Cu complexes is not sufficiently intense as to enable N2-PLS measurement, the extraction method was applied to these compounds. At 24 hours following administration, the organs were extracted with an organic solvent (such as chloroform-methanol) via acetone powder, and the obtained extract was measured of UV or HPLC to calculate the tumor to tissue ratio.

[4] = tested on: nitrosoamine-induced pancreatic cancer; experiment: in vivo cell growth inhibition effect (tumor size by slide calipers); design: species or system hamsters; details: i.v. 25 mg/kg bodyweight
Method: Tumor bearing hamsters of Experiment 1 were i.v. administered the test substance C10-Mn-DP-diAsp (37) (10 mg/ml) diluted by phosphate buffer at 25 mg/kg bodyweight. The tumor size was measured supracutaneously using slide calipers on an appropriate day following administration.

[5] = tested on: nitrosoamine-induced pancreatic cancer; experiment: in vivo irradiation therapy using Yag laser; design: species or system hamsters; details: i.v. 12.5 mg/kg bodyweight, Yag laser 1064 nm, 5 w, 10 sec x 4 at 24 hours after administration, autopsy 24 hours following irradiation
Method: Tumor bearing hamsters of Experiment 1 were i.v. administered the test materials C6-Ga-DP-diAsp (10) and C10 -Ga-DP-diAsp (16) (10 mg/ml) at 12.5 mg/kg bodyweight. At 24 hours after administration, the hair above the tumor site was shaved and irradiation with Yag laser commenced (1064 nm, 5 w, 10 sec x 4). At 24 hours following irradiation, the animals were exsanguinated and autopsied for observation.

[6] = luminescence properties of porphyrin derivatives (Table 1); format: physicochemical
Source text: There are two stages of destruction; Mechanism I under which the pigments are excited by light to assume the triple state which directly destroys the cancer cells, and Mechanism II under which the pigments in the triple state further excite oxygen to form the singlet state oxygen (activated oxygen) leading to cell necrosis. In the case of porphyrin derivatives, the Mechanism II is considered prevalent. By measuring the triple state life time (the fluorescence and phosphorescence life time) which indicates porphyrin's triple state, the length of phosphorescence life time is compared to reveal the intensity of photo-sensitivity. […] In other words, phosphorescence life time of metalloporphyrins coordinated with such metals as Zn and Ga is long while that of those coordinated with Mn, Fe, or Cu is very short.

[7] = 24 hours after administration, Cn-Ga-DP-diAsp
[8] = i.v. 25 mg/kg and 12.5 mg/kg bodyweight, autopsy at 24 hours after administration

tumor/tissue cancer/ kidney [3]	tumor/tissue cancer/ liver [3]	tumor/tissue cancer/ lung [3]	tumor/tissue cancer/ serum [3]	Absorbance [6] [nm]	Compound	Hemorrhagic necrosis effect [1]	also measured
6.86	5.33	5.33	0.98		CCCCCCOC(C)C1=C(C)C2=Cc3c(C(C)OCCCCCC)c(C)c4[n]3[Ga][n]3c(c(C)c(CCC(=O)NC(CC(=O)O)C(=O)O)c3=CC3=NC(=C4)C(C)=C3CCC(=O)NC(CC(=O)O)C(=O)O)=CC1=N2 (centres unmarked) [(10) C6-Ga-DP-diAsp, 2,4-bis(1-hexyloxyethyl)-Ga-deuteroporphynyl diaspartic acid]	G4	photograph of a cancer mass (Fig. 2) [1, 7]: hemorrhagic necrosis; changes of the organs such as the liver, lungs, kidneys excluding the tumor [1, 8]: showed no changes; effect on the cancer mass [1, 8]: developed hemorrhagic necrosis; state of the cancer mass after Yag laser irradiation [5]: necrotic
3.82	3.33	4.88	2.19		CC(C)=CCC/C(C)=C/COC(C)C1=C(C)C2=Cc3c(C(C)OC/C=C(\C)CCC=C(C)C)c(C)c4[n]3[Ga][n]3c(c(C)c(CCC(=O)NC(CC(=O)O)C(=O)O)c3=CC3=NC(=C4)C(C)=C3CCC(=O)NC(CC(=O)O)C(=O)O)=CC1=N2 (centres unmarked) [(17) C10(Gera)-Ga-DP-diAsp, 2,4-bis(1-geranyloxyethyl)-Ga-deuteroporphynyl diaspartic acid]	G2	
				570	C=CC1=C(C)c2cc3[n-]c(cc4nc(cc5[n-]c(cc1n2)c(C)c5CCC(=O)OC)C(CCC(=O)OC)=C4C)c(C)c3C=C.[Co+2] [Co-PP-Me]		
15.66	11.37	12.39	2.82		CC(C)=CCCC(C)CCOC(C)C1=C(C)C2=Cc3c(C(C)OCCC(C)CCC=C(C)C)c(C)c4[n]3[Ga][n]3c(c(C)c(CCC(=O)NC(CC(=O)O)C(=O)O)c3=CC3=NC(=C4)C(C)=C3CCC(=O)NC(CC(=O)O)C(=O)O)=CC1=N2 (centres unmarked) [(18) C10(Citro)-Ga-DP-diAsp, 2,4-bis(1-citronellyloxyethyl)-Ga-deuteroporphynyl diaspartic acid]	G2	
				572	C=CC1=C(C)c2cc3[n-]c(cc4nc(cc5[n-]c(cc1n2)c(C)c5CCC(=O)OC)C(CCC(=O)OC)=C4C)c(C)c3C=C.[Cu+2] [Cu-PP-Me]		Phosphorescence [6]: 705 nm; Phosphorescence life time ([6]; Filter paper): 20 µs; Phosphorescence life time ([6]; Solution): 100 µs

More lines, now with the values behind:

Compound	tumor/tissue cancer/ kidney [3]	tumor/tissue cancer/ liver [3]	tumor/tissue cancer/ lung [3]	tumor/tissue cancer/ serum [3]	Absorbance [6] [nm]	Hemorrhagic necrosis effect [1]	also measured
CCCCCCCCOC(C)C1=C(C)C2=Cc3c(C(C)OCCCCCCCC)c(C)c4[n]3[Ga][n]3c(c(C)c(CCC(=O)NC(CC(=O)O)C(=O)O)c3=CC3=NC(=C4)C(C)=C3CCC(=O)NC(CC(=O)O)C(=O)O)=CC1=N2 (centres unmarked) [(12) C8-Ga-DP-diAsp, 2,4-bis(1-octyloxyethyl)-Ga-deuteroporphynyl diaspartic acid]	2.12	1.47	2.20	0.29		G3	photograph of a cancer mass (Fig. 2) [1, 7]: hemorrhagic necrosis; concentration at which photosensitivity is manifested [2]: ≥ 1.0 ng/mL
CCCCCCCCCCOC(C)C1=C(C)c2cc3[nH]c(cc4nc(cc5[nH]c(cc1n2)c(C)c5C(C)OCCCCCCCCCC)C(C)=C4CCC(=O)NC(CC(=O)O)C(=O)O)c(CCC(=O)NC(CC(=O)O)C(=O)O)c3C.[Mn] (centres unmarked) [(37) C10-Mn-DP-diAsp, 2,4-bis(1-decyloxyethyl)-Mn-deuteroporphynyl diaspartic acid]						G3	photosensitivity [2]: no photosensitivity; tumor growth compared to the control group (Fig. 6) [4]: notable tumor growth inhibitory effect
Ga-protoporphyrin dimethyl ester [Ga-PP-Me]					570		Fluorescence [6]: 575 nm; Phosphorescence [6]: 715 nm; Phosphorescence life time ([6]; Filter paper): 50 ms; Phosphorescence life time ([6]; Solution): 200 ms
CC1=C(CCC(=O)NC(CC(=O)O)C(=O)O)C2=NC1=Cc1c(C)c(C(C)OCCC(C)CCCC(C)C)c3[n]1[Ga][n]1c(c(C)c(CCC(=O)NC(CC(=O)O)C(=O)O)c1=C2)=CC1=NC(=C3)C(C)=C1C(C)OCCC(C)CCCC(C)C (centres unmarked) [(19) C10(H2Citro)-Ga-DP-diAsp, 2,4-bis(1-dihydrocitronellyloxyethyl)-Ga-deuteroporphynyl diaspartic acid]	11.49	9.09	11.11	3.50		G2	
C=Cc1c(C)c2cc3[nH]c(cc4nc(cc5nc(cc1[nH]2)C(C)=C5CCC(=O)OC)C(CCC(=O)OC)=C4C)c(C)c3C=C [PP-Me]					633		Fluorescence [6]: 635 nm; Phosphorescence life time ([6]; Filter paper): 1.8 ms
CC1=C(CCC(=O)NC(CC(=O)O)C(=O)O)C2=NC1=Cc1c(C)c(C(C)OC(C)C)c3[n]1[Ga][n]1c(c(C)c(CCC(=O)NC(CC(=O)O)C(=O)O)c1=C2)=CC1=NC(=C3)C(C)=C1C(C)OC(C)C (centres unmarked) [(7) C3(iso)-Ga-DP-diAsp, 2,4-bis(1-isopropoxyethyl)-Ga-deuteroporphynyl diaspartic acid]	3.03	2.63	2.33	1.54		G2	
COC(C)C1=C(C)C2=Cc3c(C(C)OC)c(C)c4[n]3[Ga][n]3c(c(C)c(CCC(=O)NC(CC(=O)O)C(=O)O)c3=CC3=NC(=C4)C(C)=C3CCC(=O)NC(CC(=O)O)C(=O)O)=CC1=N2 (centres unmarked) [(4) C1-Ga-DP-diAsp, 2,4-bis(1-methoxyethyl)-Ga-deuteroporphynyl diaspartic acid]	2.27	1.19	0.78	2.50		G1	
C=CC1=C(C)c2cc3[n-]c(cc4nc(cc5[n-]c(cc1n2)c(C)c5CCC(=O)OC)C(CCC(=O)OC)=C4C)c(C)c3C=C.[Mg+2] [Mg-PP-Me]					590		Fluorescence [6]: 600 nm
CCCCCCCOC(C)C1=C(C)C2=Cc3c(C(C)OCCCCCCC)c(C)c4[n]3[Ga][n]3c(c(C)c(CCC(=O)NC(CC(=O)O)C(=O)O)c3=CC3=NC(=C4)C(C)=C3CCC(=O)NC(CC(=O)O)C(=O)O)=CC1=N2 (centres unmarked) [(11) C7-Ga-DP-diAsp, 2,4-bis(1-heptyloxyethyl)-Ga-deuteroporphynyl diaspartic acid]	4.88	2.96	2.92	0.89		G4	photograph of a cancer mass (Fig. 1) ([1]; 24 hours after administration, Cn-Ga-DP-diAsp, n = odd numbers): hemorrhagic necrosis
